# Assay: Four hours of driving-simulator combined fatigue loading after intake of tryptophan; concentration of tryptophan in plasma
# Format: in vivo, human
# Description: Twelve healthy males who were in their twenties served as subjects. Each of the subjects was right-handed, had at least one year of experience as a licensed driver, and drove an ordinary motor vehicle at least once a week. Further, patients with sinus problems, smokers, users of drugs (such as caffeinated or spiced food products and anti-allergic drugs, which affect a central nervous system) were excluded.
# The subject was subjected to driving work loading by using a driving simulator (ACCESS MASTER AM2330 manufactured by Tasknet Inc.).
# In order to study an effect of tryptophan on fatigue, each of the subjects in a tryptophan group who received tryptophan before loading was subjected to four hours of simulator driving without a break, and each of the subjects in a placebo group who received a placebo before loading was subjected to four hours of simulator driving without a break. The same subject received 5 mg/kg of tryptophan or a placebo at least one week apart, and participated in the experiment.
# Blood sample was taken from the subjects according to the experimental schedule shown in Table 4 so as to measure concentrations of amino acids in their plasma.
compound,measurement,setting,value
N[C@@H](Cc1c[nH]c2ccccc12)C(=O)O [tryptophan],concentration at 4 h,"male, human, plasma, oral, tryptophan group, 5 mg/kg tryptophan taken before loading, after four hours of simulator driving, healthy males",39 µM
same,concentration of tryptophan in plasma before fatigue loading,"tryptophan group (5 mg/kg tryptophan), blood sampled before intake and before four hours of simulator driving, healthy males",43 µM
same,change in concentration of tryptophan in plasma between before and after fatigue loading,"tryptophan group, 5 mg/kg before loading, four hours of simulator driving, placebo group showed a significant decrease",no significant decrease
